According to US20240277698A1, “METHODS OF USING ALDOSTERONE SYNTHASE INHIBITORS” (CINCOR PHARMA, INC., priority 2021, published 2024):

Tests used:
[1] = molecular target: T1, CYP11B1 (Homo sapiens, UniProt P15538); assay: SAD study: plasma cortisol, 11-deoxycortisol and 11-DOC after Cortrosyn challenge; assay type: in vivo
T1 construct: endogenous in cells; host or cells: adrenal cortex of healthy human subjects (in vivo, oral dosing)
T1 sequence (P15538 25-503): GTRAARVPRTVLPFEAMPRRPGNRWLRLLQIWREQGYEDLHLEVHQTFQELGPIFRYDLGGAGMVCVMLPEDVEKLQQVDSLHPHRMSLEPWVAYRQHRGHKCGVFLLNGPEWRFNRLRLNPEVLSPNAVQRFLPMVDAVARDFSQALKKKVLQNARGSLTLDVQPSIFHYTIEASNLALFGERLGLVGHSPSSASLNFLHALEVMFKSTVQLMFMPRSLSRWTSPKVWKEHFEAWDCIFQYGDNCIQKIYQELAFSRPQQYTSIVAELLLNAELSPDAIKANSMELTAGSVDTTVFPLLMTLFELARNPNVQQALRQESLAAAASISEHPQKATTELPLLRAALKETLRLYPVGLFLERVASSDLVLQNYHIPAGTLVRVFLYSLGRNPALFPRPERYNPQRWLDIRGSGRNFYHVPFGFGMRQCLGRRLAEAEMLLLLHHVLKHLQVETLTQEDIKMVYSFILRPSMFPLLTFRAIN
Experimental: Single doses of (R)-compound 1 reduced plasma and urine aldosterone levels by approximately 85% to 90% in a dose-dependent manner, consistently reaching a maximum effect at a dose of 10 mg (R)-compound 1 under the different conditions tested (Cortrosyn® challenge, standing, normal salt diet, and low salt diet conditions). No change in plasma cortisol levels was apparent across the full dose range tested (0 to 360 mg (R)-compound 1).
A maximum effect on aldosterone reduction was consistently achieved at a dose of 10 mg under the different conditions tested in healthy subjects (Cortrosyn® challenge, standing, normal salt diet, and low salt diet conditions). No change in plasma cortisol levels after the Cortrosyn challenge was apparent across the full dose range tested (0 to 360 mg of (R)-compound 1).

[2] = Absolute bioavailability, 3 mg IV versus 3 mg oral; assay type: in vivo; settings: human, plasma
[3] = Single-ascending dose (SAD) study in healthy subjects: plasma and urine pharmacokinetics; settings: human, in vivo
Experimental: A second, generally lower peak was often observed at 3 to 4 hours postdose.
A second, generally lower peak was often observed at 3 to 4 hours post-dose. […] Over the anticipated therapeutically relevant dose range (through 10 mg), peak and overall exposures (as assessed by Cmax and area under the concentration-time curve [AUC]) increased in a generally dose-proportional manner.
Single- and Multiple-Dose Plasma Pharmacokinetics of (R)-compound 1. The single- and multiple-dose PK profiles of (R)-compound 1 have been characterized in healthy subjects in the Phase 1 studies. FIG. 7 depicts the mean plasma concentration versus time profiles of (R)-compound 1 after administration of single oral doses of (R)-compound 1 ranging from 1 mg to 360 mg (under low salt conditions) and at steady-state over the range of 0.5 mg to 5 mg (under low and/or normal salt conditions). After oral administration, (R)-compound 1 is rapidly absorbed with peak concentrations observed within 3 hours after dosing (range 0.5 to 4 hours).

With `CCC(=O)N[C@@H]1CCCc2c(-c3ccc4c(c3)CCC(=O)N4C)cncc21` [(R)-Compound 1, (R)—N-(4-(1-methyl-2-oxo-1,2,3,4-tetrahydroquinolin-6-yl)-5,6,7,8-tetrahydroisoquinolin-8-yl)propionamide] the plasma cortisol levels ([1]; full dose range tested (0 to 360 mg), Cortrosyn challenge) was “No change”, the “doses at which 11-DOC increased” value ([1]; single doses) was no less than 90 mg and the 11-deoxycortisol ([1]; single doses up to 360 mg) was “increases in 11-deoxycortisol (at doses of 180 mg and 360 mg)”. For the same compound, the bioavailability [2] was 97.9%, the CL renal [3] was 4.63 to 7.38 mL/min and the “Renal clearance as share of total plasma clearance, average” value [3] was 15.5%. For the same compound, the “Renal clearance as share of total plasma clearance, range of individual values” [3] was 6.53-31.8%, the fraction unbound [3] was 0.26 and the “dose recovered unchanged in the urine” value ([3]; po) was “Approximately 110%”. The half-life ([3]; po) was 25 to 31 h, the “median time (tmax) to maximum observed concentration (Cmax)” value ([3]; po) was 0.5 to 2 h and the “second, generally lower peak, time postdose” value ([3]; po) was 3 to 4 h. For the same compound, the “time to peak concentrations, range” value ([3]; po) was 0.5 to 4 h, the AUC(0-inf) ([3]; po, 1 mg) was 330 ng·h/mL and the AUC(0-t) ([3]; po, 1 mg) was 147 ng·h/mL. The AUCextrapoloated ([3]; po, 1 mg) was 1.66%, the CL/F ([3]; po, 1 mg) was 3270 mL/h and the Cmax ([3]; po, 1 mg) was 10.1 ng/mL. The Tmax ([3]; po, 1 mg) was 1 h, the Vd/F ([3]; po, 1 mg) was 122 L and the half-life ([3]; po, 1 mg) was 27.4 h. The AUC(0-inf) ([3]; po, 3 mg) was 1070 ng·h/mL, the AUC(0-t) ([3]; po, 3 mg) was 491 ng·h/mL and the AUCextrapoloated ([3]; po, 3 mg) was 1.68%. The CL/F ([3]; po, 3 mg) was 2820 mL/h, the Cmax ([3]; po, 3 mg) was 31.9 ng/mL and the Tmax ([3]; po, 3 mg) was 2 h. For the same compound, the Vd/F ([3]; po, 3 mg) was 117 L, the half-life ([3]; po, 3 mg) was 29.1 h and the AUC(0-inf) ([3]; po, 10 mg) was 3630 ng·h/mL. The AUC(0-t) ([3]; po, 10 mg) was 1600 ng·h/mL, the AUCextrapoloated ([3]; po, 10 mg) was 1.37% and the CL/F ([3]; po, 10 mg) was 2820 mL/h. For the same compound, the Cmax ([3]; po, 10 mg) was 125 ng/mL, the Tmax ([3]; po, 10 mg) was 0.5 h and the Vd/F ([3]; po, 10 mg) was 123 L. The half-life ([3]; po, 10 mg) was 30.7 h, the AUC(0-inf) ([3]; po, 30 mg) was 11000 ng·h/mL and the AUC(0-t) ([3]; po, 30 mg) was 5260 ng·h/mL. The AUCextrapoloated ([3]; po, 30 mg) was 0.986%, the CL/F ([3]; po, 30 mg) was 2820 mL/h and the Cmax ([3]; po, 30 mg) was 386 ng/mL. It also gave a Tmax ([3]; po, 30 mg) of 0.75 h, a half-life ([3]; po, 30 mg) of 29.4 h and an AUC(0-inf) ([3]; po, 90 mg) of 32200 ng·h/mL. For the same compound, the AUC(0-t) ([3]; po, 90 mg) was 18300 ng·h/mL, the AUCextrapoloated ([3]; po, 90 mg) was 0456% and the CL/F ([3]; po, 90 mg) was 2830 mL/h. It also gave a Cmax ([3]; po, 90 mg) of 1380 ng/mL, a Tmax ([3]; po, 90 mg) of 1.25 h and a Vd/F ([3]; po, 90 mg) of 102 L. The half-life ([3]; po, 90 mg) was 25.3 h, the AUC(0-inf) ([3]; po, 180 mg) was 65800 ng·h/mL and the AUC(0-t) ([3]; po, 180 mg) was 33200 ng·h/mL. It also gave an AUCextrapoloated ([3]; po, 180 mg) of 0.789%, a CL/F ([3]; po, 180 mg) of 2900 mL/h and a Cmax ([3]; po, 180 mg) of 2490 ng/mL. For the same compound, the Tmax ([3]; po, 180 mg) was 1 h, the Vd/F ([3]; po, 180 mg) was 114 L and the half-life ([3]; po, 180 mg) was 28 h. The AUC(0-inf) ([3]; po, 360 mg) was 147000 ng·h/mL, the AUC(0-t) ([3]; po, 360 mg) was 73200 ng·h/mL and the AUCextrapoloated ([3]; po, 360 mg) was 0719%. The CL/F ([3]; po, 360 mg) was 2480 mL/h, the Cmax ([3]; po, 360 mg) was 5750 ng/mL and the Tmax ([3]; po, 360 mg) was 0.5 h. For the same compound, the half-life ([3]; po, 360 mg) was 27.8 h.
